Patent publication US20090191216A1, “Antibody or a fragment thereof, having neutralizing activity against HIV” (priority 2005, published 2009)
Bridges are numbered along the chain shown (N, C = ends). Where no end group is shown, it is not given here.

Test system: HIV-1 R5 strains from clades C and D
Test: Inhibition of HIV-1 transcytosis across HEC-1 cell line with cyclized CDR3
Type: cell-based
Settings: cells preincubated 30 minutes at 17° C. with peptide; linear CDR3 as control

In the case of “cyclized CDR3 derived from Fab clone 43: CDR3 of clone 43 H chain (SEQ ID NO:1) with flanking residues, cyclized by disulfide bridge, SEQ ID NO:12 (CARDPRYYDAWSGPQLYYYYMDVWCKG; disulfide 1-25; listed as Homo Sapiens)”, the inhibition of transcytosis is reported as “more than 50%”.
